Results as given in patent publication US20200038513A1, “MODULATORS OF FAK PROTEOLYSIS AND ASSOCIATED METHODS OF USE” (ARVINAS OPERATIONS, INC., priority 2018, published 2020).

Test system: MDA-MB-231 cells
Assay: RPPA (reverse phase protein array)
Type: cell-based, human
Description: RPPA analysis was performed by MD Anderson Cancer Center RPPA core facility.
Examination of the Molecular Signaling Events) and/or Downstream Pathways Responsible for the Migration and Invasion Effects Observed by Exemplary Compound Treatment. To pinpoint these observations to a molecular signaling event or specific downstream pathway, reverse phase protein array (RPPA) analysis was performed (Table 4).

CNC(=O)c1ccc(Nc2ncc(C(F)(F)F)c(NCc3nccnc3N(C)S(C)(=O)=O)n2)cc1 [Defactinib, defactinib, reference compound]
rel. Protein level, Merlin (1000nM): 99.3% | rel. Protein level, Mnk1 (1000nM): 97.5% | rel. Protein level, Myosin-11 (1000nM): 100.9% | rel. Protein level, Myosin-IIa_pS1943 (1000nM): 108.6% | rel. Protein level, Myt1 (1000nM): 94.5% | rel. Protein level, N-Cadherin (1000nM): 107.8% | rel. Protein level, N-Ras (1000nM): 93.7% | rel. Protein level, NAPSIN-A (1000nM): 99.4% | rel. Protein level, NDRG1_pT346 (1000nM): 103.5% | rel. Protein level, NDUFB4 (1000nM): 96.3% | rel. Protein level, NF-kB-p65_pS536 (1000nM): 105.0% | rel. Protein level, Notch1 (1000nM): 96.2% | rel. Protein level, Notch3 (1000nM): 105.9% | rel. Protein level, Oct-4 (1000nM): 100.5% | rel. Protein level, P-Cadherin (1000nM): 104.3% | rel. Protein level, PAI-1 (1000nM): 106.1% | rel. Protein level, PAICS (1000nM): 98.7% | rel. Protein level, PAK1 (1000nM): 107.0% | rel. Protein level, PAK4 (1000nM): 95.5% | rel. Protein level, PAR (1000nM): 135.9% | rel. Protein level, PARP (1000nM): 98.0% | rel. Protein level, PCNA (1000nM): 88.7% | rel. Protein level, PD-1 (1000nM): 107.0% | rel. Protein level, PD-L1 (1000nM): 92.6% | rel. Protein level, PDGFR-b (1000nM): 138.5% | rel. Protein level, PDHK1 (1000nM): 102.5% | rel. Protein level, PDK1 (1000nM): 99.8% | rel. Protein level, PDK1_pS241 (1000nM): 97.4% | rel. Protein level, PEA-15 (1000nM): 98.7% | rel. Protein level, PEA-15_pS116 (1000nM): 97.0% | rel. Protein level, PI3K-p85 (1000nM): 100.0% | rel. Protein level, PI3K-p110-a (1000nM): 103.7% | rel. Protein level, PI3K-p110-b (1000nM): 98.5% | rel. Protein level, PKA-a (1000nM): 99.6% | rel. Protein level, PKC-b-II_pS660 (1000nM): 98.6% | rel. Protein level, PKC-delta_pS664 (1000nM): 100.9% | rel. Protein level, PKCa (1000nM): 110.1% | rel. Protein level, PKM2 (1000nM): 106.2% | rel. Protein level, PLC-gamma2_pY759 (1000nM): 97.2% | rel. Protein level, PLK1 (1000nM): 82.1% | rel. Protein level, PMS2 (1000nM): 98.6% | rel. Protein level, PR (1000nM): 100.3% | rel. Protein level, PRAS40 (1000nM): 98.3% | rel. Protein level, PRAS40_pT246 (1000nM): 90.7% | rel. Protein level, PREX1 (1000nM): 105.2% | rel. Protein level, PTEN (1000nM): 108.6% | rel. Protein level, Paxillin (1000nM): 105.5% | rel. Protein level, Pdcd4 (1000nM): 117.5% | rel. Protein level, Porin (1000nM): 95.2% | rel. Protein level, RBM15 (1000nM): 103.9% | rel. Protein level, RIP (1000nM): 103.7% | rel. Protein level, RPA32 (1000nM): 96.8% | rel. Protein level, RPA32_pS4-S8 (1000nM): 93.9% | rel. Protein level, RSK (1000nM): 104.4% | rel. Protein level, Rab11 (1000nM): 101.7% | rel. Protein level, Rab25 (1000nM): 97.8% | rel. Protein level, Rad50 (1000nM): 104.7% | rel. Protein level, Rad51 (1000nM): 102.1% | rel. Protein level, Raptor (1000nM): 98.9% | rel. Protein level, Rb (1000nM): 93.9% | rel. Protein level, Rb_pS807_S811 (1000nM): 84.3% | rel. Protein level, Rheb (1000nM): 91.7% | rel. Protein level, Rictor (1000nM): 111.8% | rel. Protein level, Rictor_pT1135 (1000nM): 90.0% | rel. Protein level, S6 (1000nM): 102.7% | rel. Protein level, S6_pS235_S236 (1000nM): 50.9% | rel. Protein level, S6_pS240_S244 (1000nM): 49.1% | rel. Protein level, b-Actin (1000nM): 101.1% | rel. Protein level, b-Catenin (1000nM): 100.0% | rel. Protein level, b-Catenin_pT41_S45 (1000nM): 98.3% | rel. Protein level, c-Abl (1000nM): 109.1% | rel. Protein level, c-IAP2 (1000nM): 94.3% | rel. Protein level, c-Jun_pS73 (1000nM): 92.7% | rel. Protein level, c-Kit (1000nM): 101.5% | rel. Protein level, c-Met_pY1234_Y1235 (1000nM): 98.9% | rel. Protein level, c-Myc (1000nM): 95.9% | rel. Protein level, cdc2_pY15 (1000nM): 90.1% | rel. Protein level, cdc25C (1000nM): 98.2% | rel. Protein level, eEF2 (1000nM): 94.8% | rel. Protein level, eEF2K (1000nM): 116.4% | rel. Protein level, eIF4E (1000nM): 105.5% | rel. Protein level, eIF4E_pS209 (1000nM): 95.7% | rel. Protein level, eIF4G (1000nM): 95.8% | rel. Protein level, mTOR (1000nM): 92.1% | rel. Protein level, mTOR_pS2448 (1000nM): 88.3% | rel. Protein level, p21 (1000nM): 100.5% | rel. Protein level, p27-Kip-1 (1000nM): 96.7% | rel. Protein level, p27_pT198 (1000nM): 96.4% | rel. Protein level, p38-MAPK (1000nM): 94.3% | rel. Protein level, p38_pT180_Y182 (1000nM): 100.6% | rel. Protein level, p44-42-MAPK (1000nM): 108.2% | rel. Protein level, p53 (1000nM): 93.7% | rel. Protein level, p70-S6K1 (1000nM): 111.0% | rel. Protein level, p70-S6K_pT389 (1000nM): 95.5% | rel. Protein level, p90RSK_pT573 (1000nM): 98.9% | rel. Protein level [%], SCD (antibody SCD, 1000nM, n = 2): 98.9% | rel. Protein level [%], SDHA (antibody SDHA, 1000nM, n = 2): 103.8% | rel. Protein level [%], SF2 (antibody SF2, 1000nM, n = 2): 95.8% | rel. Protein level [%], SHP-2_pY542 (antibody SHP-2_pY542, 1000nM, n = 2): 97.2% | rel. Protein level [%], SLC1A5 (antibody SLC1A5, 1000nM, n = 2): 111.6% | rel. Protein level [%], SOD1- (antibody SOD1-, 1000nM, n = 2): 97.7% | rel. Protein level [%], SOD2 (antibody SOD2, 1000nM, n = 2): 106.0% | rel. Protein level [%], STING (antibody STING, 1000nM, n = 2): 135.4% | rel. Protein level [%], Shc_pY317 (antibody Shc_pY317, 1000nM, n = 2): 104.3% | rel. Protein level [%], Slfn11 (antibody Slfn11, 1000nM, n = 2): 95.9% | rel. Protein level [%], Smac (antibody Smac, 1000nM, n = 2): 99.9% | rel. Protein level [%], Smad1 (antibody Smad1, 1000nM, n = 2): 97.8% | rel. Protein level [%], Smad3 (antibody Smad3, 1000nM, n = 2): 102.3% | rel. Protein level [%], Smad4 (antibody Smad4, 1000nM, n = 2): 95.2% | rel. Protein level [%], Snail (antibody Snail, 1000nM, n = 2): 101.3% | rel. Protein level [%], Sox2 (antibody Sox2, 1000nM, n = 2): 100.5% | rel. Protein level [%], Src (antibody Src, 1000nM, n = 2): 103.9% | rel. Protein level [%], Src_pY419 (antibody Src_pY419, 1000nM, n = 2): 99.6% | rel. Protein level [%], Src_pY527 (antibody Src_pY527, 1000nM, n = 2): 93.7% | rel. Protein level [%], Stat3 (antibody Stat3, 1000nM, n = 2): 92.9% | rel. Protein level [%], Stat3_pY705 (antibody Stat3_pY705, 1000nM, n = 2): 100.5% | rel. Protein level [%], Stat5a (antibody Stat5a, 1000nM, n = 2): 108.2% | rel. Protein level [%], Stathmin-1 (antibody Stathmin-1, 1000nM, n = 2): 99.3% | rel. Protein level [%], Syk (antibody Syk, 1000nM, n = 2): 95.8% | rel. Protein level [%], TAZ (antibody TAZ, 1000nM, n = 2): 100.5% | rel. Protein level [%], TFAM (antibody TFAM, 1000nM, n = 2): 101.4% | rel. Protein level [%], TFRC (antibody TFRC, 1000nM, n = 2): 96.3% | rel. Protein level [%], TIGAR (antibody TIGAR, 1000nM, n = 2): 100.5% | rel. Protein level [%], TRIM25 (antibody TRIM25, 1000nM, n = 2): 99.8% | rel. Protein level [%], TSC1 (antibody TSC1, 1000nM, n = 2): 102.5% | rel. Protein level [%], TTF1 (antibody TTF1, 1000nM, n = 2): 95.4% | rel. Protein level [%], TUFM (antibody TUFM, 1000nM, n = 2): 98.4% | rel. Protein level [%], TWIST (antibody TWIST, 1000nM, n = 2): 97.7% | rel. Protein level [%], Tau (antibody Tau, 1000nM, n = 2): 102.9% | rel. Protein level [%], Transglutaminase (antibody Transglutaminase, 1000nM, n = 2): 93.5% | rel. Protein level [%], Tuberin (antibody Tuberin, 1000nM, n = 2): 101.7% | rel. Protein level [%], Tuberin_pT1462 (antibody Tuberin_pT1462, 1000nM, n = 2): 93.6% | rel. Protein level [%], Tyro3 (antibody Tyro3, 1000nM, n = 2): 98.5% | rel. Protein level [%], U-Histone-H2B (antibody U-Histone-H2B, 1000nM, n = 2): 113.8% | rel. Protein level [%], UBAC1 (antibody UBAC1, 1000nM, n = 2): 99.7% | rel. Protein level [%], UGT1A (antibody UGT1A, 1000nM, n = 2): 98.6% | rel. Protein level [%], ULK1_pS757 (antibody ULK1_pS757, 1000nM, n = 2): 102.1% | rel. Protein level [%], VASP (antibody VASP, 1000nM, n = 2): 100.5% | rel. Protein level [%], VEGFR-2 (antibody VEGFR-2, 1000nM, n = 2): 93.5% | rel. Protein level [%], VHL-EPPK1 (antibody VHL-EPPK1, 1000nM, n = 2): 88.7% | rel. Protein level [%], WIPI1 (antibody WIPI1, 1000nM, n = 2): 102.3% | rel. Protein level [%], WIPI2 (antibody WIPI2, 1000nM, n = 2): 106.2% | rel. Protein level [%], Wee1 (antibody Wee1, 1000nM, n = 2): 95.3% | rel. Protein level [%], Wee1_pS642 (antibody Wee1_pS642, 1000nM, n = 2): 95.2% | rel. Protein level [%], XBP-1 (antibody XBP-1, 1000nM, n = 2): 89.5% | rel. Protein level [%], XPA (antibody XPA, 1000nM, n = 2): 83.5% | rel. Protein level [%], XPF (antibody XPF, 1000nM, n = 2): 100.5% | rel. Protein level [%], XRCC1 (antibody XRCC1, 1000nM, n = 2): 102.3% | rel. Protein level [%], YAP (antibody YAP, 1000nM, n = 2): 93.7% | rel. Protein level [%], YAP_pS127 (antibody YAP_pS127, 1000nM, n = 2): 103.1% | rel. Protein level [%], YB1_pS102 (antibody YB1_pS102, 1000nM, n = 2): 82.7% | rel. Protein level [%], ZAP-70 (antibody ZAP-70, 1000nM, n = 2): 95.1%
